# pEC50: −log10 of the molar value. “Also recorded” adds a separate entry of the source. Where no end group is shown, it is not given here. fluorescein = fluorescein label; rhodamine = not defined here; Rhod = not defined here
# Legend:
# HeLa cells [1] = assay: Colocalization of rhodamine and fluorescein labeled miniature proteins and peptides; format: cell-based; conditions: 1 μM each, 30 min, 37° C.
# Procedure: HeLa cells were treated with a mixture of rhodamine—(indicated by the superscript R) and fluorescein—(indicated by the superscript F)—labeled miniature protein or peptide (1 μM each) for 30 min at 37° C., washed, and then imaged using confocal microscopy. […] The remaining molecules show high fluorescence, and molecules sharing the same sequence (but different labels) show high degrees of overlap, with R>0.68. The amino acid sequence of Arg8 is provided in SEQ ID NO:68.
# Colocalization between rhodamine and fluorescein labeled miniature proteins and peptides, or between rhodamine labeled miniature proteins and markers of endocytosis was completed using confocal microscopy. […] Alexafluor-488-transferrin was detected using a 488 nm laser and a 520 nm long pass filter; tetraethylrhodamine and Alexafluor-546-transferrin were detected using a 546 nm laser line and a 580 nm long pass filter, Hoescht 33342 was detected using a 405 nm laser line and a 450 nm long pass filter. […] The fraction of rhodamine signal overlapping with EGFP signal (R E G) was calculated using Mander's coefficient and automatic thresholding. […]
# [2] = test system: HeLa cells transfected with GR-GFP; assay: GR-GFP translocation assay (cytosolic access of Dex-labeled molecules); format: cell-based; conditions: for effect of bafilomycin on TR: 200 nM bafilomycin pretreatment 1 h; for effect of bafilomycin on TR / effect of EIPA on TR / effect of dynasore on TR / effect of methyl-β-cyclodextrin (MβCD) on TR: then 1 μM; for translocation ratio (TR) / effect of EIPA on TR / effect of dynasore on TR / effect of methyl-β-cyclodextrin (MβCD) on TR: 30 min; for translocation ratio (TR): HeLa cells expressing GR-GFP; for effect of EIPA on TR: 50 μM EIPA pretreatment 30 min; for effect of dynasore on TR: 80 μM dynasore pretreatment 30 min; for effect of methyl-β-cyclodextrin (MβCD) on TR: 5 mM MβCD pretreatment 30 min
# Procedure: HeLa cells transfected with pK7-GR-GFP were plated in Matrical plates as described above. To label nuclei, the media was replaced with HKR buffer containing 300 nM Hoescht and the cells incubated for 30 min at 37° C.
# Cells were then analyzed as described above.
# HeLa cells transfected with pK7-GR-GFP for 24-36 hr were plated (10^4/well in 200 μL) the day prior to experiments in 96 well glass bottom plates (Matrical). The media was replaced with HKR buffer containing 300 nM Hoescht and the cells incubated for 30 min at 37° C. […] The cells were incubated for a further 30 min at 37° C. before epifluorescence imaging using a Zeiss Axiovert 200M microscope fitted with a mRM digital camera, a 63×1.3NA PlanApo objective and an EXFO-Excite illumination source.
# Uptake was allowed to proceed for an additional 30 min at 37° C. before analysis by epifluorescence images as described elsewhere herein.
# The image analysis algorithm used by CellProfiler is customizable and contained within a ‘Pipeline’ that describes a series of image manipulation and evaluation steps, such as reading the image, adjusting the intensity, and identifying objects. Each step has several options. […] Using the image of Hoescht fluorescence and Otsu's method of automatic thresholding, nuclei were identified and segmented using 3 class thresholding. The middle class was assigned to background. Closely approximated objects were separated using ‘Laplacian of Gaussian’ modeling, and touching nuclei were divided using the ‘shape’ option. Nuclear regions were expanded by 2 μm to generate an enlarged region. The nuclear region was subtracted from enlarged region to generate a ring surrounding the nucleus (surround). […] The ratio of the median intensities of the nuclear and surrounding region of the GFP or mCherry (as appropriate) image were collected for every cell examined. Those cells falling below a threshold of intensity (10% of the maximum intensity of the image) were discarded as ‘untransfected’. Typically, 20-60 transfected cells from 15-30 images were examined for each experimental condition.
# [3] = test system: HeLa cells transfected with pGR-mCherry and Rab5-GFP or Rab5Q79L-GFP; assay: GR-mCherry translocation in cells expressing Rab5-GFP or Rab5Q79L-GFP; format: cell-based; conditions: for effect of Rab5Q79L on ability to reach the cytoplasm / TR: overexpression of Rab5Q79L-GFP
# Procedure: Cotransfected cells expressing Rab-GFP fusions and pGR-mCherry were identified via their characteristic pattern of green and red fluorescence. The translocation ratio was determined using median values of mCherry fluorescence within the nucleus and surrounding region using CellProfiler.
# HeLa cells transfected for 24-36 hr with pGR-mCherry and either Rab5-GFP or Rab5Q79L-GFP were plated (10^4/well in […]) the day prior to experiments in 96 well glass bottom plates (Matrical). The cells were washed with HKR buffer and the nuclei labeled using Hoescht as above. […] The cells were incubated for a further 30 min at 37° C. before imaging. Cells that had been cotransfected with EGFP fusions were identified via their characteristic pattern of green and red fluorescence. To evaluate the extent of GR activation, epifluorescence images were obtained as described above, except the fluorescence of pGR-mCherry was also visualized using Zeiss Filter Set #43 (ex BP 545/25 nm, FT 570, em BP 605/70 nm).
# The image analysis algorithm used by CellProfiler is customizable and contained within a ‘Pipeline’ that describes a series of image manipulation and evaluation steps, such as reading the image, adjusting the intensity, and identifying objects. Each step has several options. […] Using the image of Hoescht fluorescence and Otsu's method of automatic thresholding, nuclei were identified and segmented using 3 class thresholding. The middle class was assigned to background. Closely approximated objects were separated using ‘Laplacian of Gaussian’ modeling, and touching nuclei were divided using the ‘shape’ option. Nuclear regions were expanded by 2 μm to generate an enlarged region. The nuclear region was subtracted from enlarged region to generate a ring surrounding the nucleus (surround). The diameter of the surrounding region was chosen to be 2 μm larger than the nucleus, within the range (1-3 μm) used by previously reported high content screens (Ding et al., 1998, J Biol Chem. 273:28897-28905; Peeraniet al., 2007, EMBO J. 26:4744-4755). The ratio of the median intensities of the nuclear and surrounding region of the GFP or mCherry (as appropriate) image were collected for every cell examined. Those cells falling below a threshold of intensity (10% of the maximum intensity of the image) were discarded as ‘untransfected’. Typically, 20-60 transfected cells from 15-30 images were examined for each experimental condition.
# U2OS(GIGI) cells = assay: GIGI in lysates, stably transfected U2OS(GIGI) cells; format: cell-based
# From the text: RFUs are expressed±standard deviation (Excel). The maximum induction level is defined as RFUmax. Data were processed using Kaleidagraph and GraphPad Prism software. RFU=([I530]/[I580])−([I′530]/[I′580]) (1)
# Y=Ymin+(Ymax−Ymin)/(1+10^logEC50-X) (2)
# Saos-2(GIGT) cells = assay: GIGT high-content imaging in stably transfected Saos-2(GIGT) cells; format: cell-based, human
# Procedure: Saos2(GIGT) cells were plated onto 384-well plates (2,500 cells/well) in 40 μL of full McCoy's 5A and allowed to adhere overnight. […] Following treatment, cells were fixed with 4% paraformaldehyde for 20 min at room temperature and washed with PBS. […] Translocation ratios were determined using Acapella high content imaging and analysis software, with a script that processed the images in a manner similar to the CellProfiler pipeline described in the Supporting Information. Each data point represents 30-60 images containing over 100 cells.
# HeLa cells [4] = assay: Colocalization with Alexa-488-transferrin (Tf488), live cell confocal microscopy; format: cell-based; conditions: 1 μM, 30 min
# Procedure: To examine the colocalization of rhodamine labeled miniature proteins or peptides with Alexa-488-transferrin (Tf488), HeLa cells were plated (200 μl, 10^4 cells/well, 96 well glass bottom plates, Matrical) the day prior to experiments. The media was replaced with 150 μL Hepes-Krebs-Ringer's (HKR) buffer (140 mM NaCl, 2 mM KCl, 1 mM CaCl2, 1 mM MgCl2, 10 mM Hepes pH 7.4) containing 1 μM miniature protein or 25 nM Alexa-488-transferrin (Molecular Probes) and the cells incubated at 37° C. for 30 min. The cells were then rinsed twice with 200 μL, HKR buffer and nuclei were labeled by overlaying 200 μL HKR containing 300 nM Hoechst 33342 (Molecular Probes Cat. # H3570) for 5 minutes. Images of cells were acquired using a PerkinElmer LiveView spinning disk confocal microscope fitted with a 60×1.2 NA objective. Colocalization with Rab-GFP fusions was examined in an analogous way using HeLa cells transfected with the appropriate expression plasmid.
# Colocalization between rhodamine and fluorescein labeled miniature proteins and peptides, or between rhodamine labeled miniature proteins and markers of endocytosis was completed using confocal microscopy. Live cell confocal microscopy was conducted using a PerkinElmer LiveView spinning disk confocal microscope fitted with heated microscope enclosure (maintained at 37° C.), a 60×1.2 NA objective, laser illumination, a Nipkow CSU-1× spinning disk, and a Hammamatsu CS9100 EMCCD camera operated using Velocity software. Alexafluor-488-transferrin was detected using a 488 nm laser and a 520 nm long pass filter; tetraethylrhodamine and Alexafluor-546-transferrin were detected using a 546 nm laser line and a 580 nm long pass filter, Hoescht 33342 was detected using a 405 nm laser line and a 450 nm long pass filter. Images were processed for presentation by using the ‘subtract background’ option and linear contrast adjustments in Image J. All adjustments were applied uniformly to the entire image. Colocalization analysis was performed using the JACOP plugin (Bolte and Cordelières, 2006), available on the ImageJ website. The fraction of rhodamine signal overlapping with EGFP signal (R E G) was calculated using Mander's coefficient and automatic thresholding. Pearson's correlation coefficient (R) was also obtained using the JACOP plugin.
# HeLa cells [5] = assay: HPLC analysis of cytosolic extracts prepared with streptolysin O; format: cell-based; conditions: HeLa cells treated with rhodamine labeled molecule
# Procedure: To generate cytosolic extracts, HeLa cells were treated with streptolysin O (SLO), a well characterized bacterial toxin that creates pores in the plasma membranes of target cells (Walev et al., 2002, FASEB 16:237-239). […] Moreover, when the toxin is added to cultured cells at 4° C. and washed with PBS before raising the temperature to 37° C., pores are created only in the plasma membrane and the release of ER, golgi, or endolysosomal contents are avoided (Androlewicz et al., 1993, Proc Natl Acad Sci USA 90:9130-9134).
# First, selective release of the cytoplasmic contents of HeLa cells using the published procedures was verified. HeLa cells were treated with 20 μg/mL SLO in PBS containing 5 mM DTT (20 min, 4° C.), washed (three PBS washes, 150 μL each), resuspended in PBS, and incubated at 37° C. for 15 min, after which 1.5 μM propidium iodide (PI), a marker of permeabilized cell membranes, was added.
# cathepsin B = cathepsin B (Homo sapiens, UniProt P07858); assay: Resistance to acid proteases: cathepsin B; format: in vitro ADME; conditions: 50 pmol, 30 min, 37° C., pH 5
# Procedure: 50 pmol aPPR, 5.2R, 5.3R, ZF5.3R, TatR (SEQ ID NO:67), or Arg8R (SEQ ID NO:68) were incubated with 5 pg cathepsin B, D, or L for 30 min at 37° C. in 10 μL of 20 mM sodium phosphate buffer (pH 5) containing 150 mM NaCl. At the end of the incubation, the reaction was stopped by adding 40 μL of a solution containing a 84:15:1 ratio of water:EtOH:TFA before analysis by HPLC.
Substance,cell fluorescence (HeLa cells [1]),effect of bafilomycin on TR [2],translocation ratio (TR) ([2]; 1 μM),effect of EIPA on TR [2],effect of dynasore on TR [2],effect of methyl-β-cyclodextrin (MβCD) on TR [2],effect of Rab5Q79L on ability to reach the cytoplasm / TR [3],material found in SLO cytoplasmic extracts (HPLC) (HeLa cells [5]),further results
GPSQPTYPGDDAPVEDLIRFYNDLQQYLNVVTRHRYC^FLU-NH2 (GPSQPTYPGDDAPVEDLIRFYNDLQQYLNVVTRHRYC(fluorescein)-NH2) [aPPF],low fluorescence,–,–,–,–,–,–,–,–
K^DexGRKKRRQRRRPPQY-NH2 (K(dexamethasone)GRKKRRQRRRPPQY-NH2) [TatDex],–,completely blocked the increase in TR,2.85±0.10,"reduced, to background levels","reduced, to background levels","reduced, to background levels",blocked the ability,–,"increase in TR blocked by wortmannin ([2]; 200 nM wortmannin, 1 μM): 72%; TR (GR-mCherry), Rab5Q79L-GFP expressing cells ([3]; 1 μM, 30 min, Rab5Q79L-GFP): 1.26±0.03; TR (GR-mCherry), Rab5-GFP expressing cells ([3]; 1 μM, 30 min, wild-type Rab5-GFP): 1.57±0.04; eGFP expression (U2OS(GIGI) cells; 1 μM, lysates): significant eGFP expression; translocation ratio (TR), GR★-GFP (Saos-2(GIGT) cells; 1 μM, 30 min, Saos-2(GIGT) cells): 2.28±0.24"
K^DexWYSCNVCGKAFVLSRHLNRHLRVHRRAT-NH2 (K(dexamethasone)WYSCNVCGKAFVLSRHLNRHLRVHRRAT-NH2; cysteine pairing not given here) [ZF5.3Dex],–,reduced to background levels,2.4±0.09,reduced to background levels,reduced to background levels,reduced to background levels,–,–,"EC50 fold lower than that of ZFN1-4Dex (U2OS(GIGI) cells): 70-80 fold; EC50 fold lower than that of wtZFDex (U2OS(GIGI) cells): 100 fold; pEC50 (U2OS(GIGI) cells; Dex-labeled peptides, 24 h, lysates, read-out: EC50 (eGFP expression, GIGI)): 8.85; GR★-GFP translocation (GIGT) compared with wtZF and all four ZFN domains (Saos-2(GIGT) cells; GIGT): significantly higher levels; cells expressing GR★-GFP with significant translocation ratios (Saos-2(GIGT) cells; GIGT): greater than 99%"
K^RhodGPSQPTYPGDDAPVEDLIRFYNDLQQYLNVVTRHRY-NH2 (K(rhodamine)GPSQPTYPGDDAPVEDLIRFYNDLQQYLNVVTRHRY-NH2; reading uncertain; also: printed as K^RhodGPSQPTYPGDDAPVEDLIRFYNDLQQYLNVVTRHRY-NH2) [aPPR],low fluorescence,–,–,–,–,–,–,little to no fluorescent material; also recorded: little or no aPPR is observed,intracellular red fluorescent signal (HeLa cells [4]): little or no red fluorescent signal
K^RhodWYSCNVCGKAFVLSRHLNRHLRVHRRAT-NH2 (K(Rhod)WYSCNVCGKAFVLSRHLNRHLRVHRRAT-NH2; cysteine pairing not given here; reading uncertain; also: printed as KRhodWYSCNVCGKAFVLSRHLNRHLRVHRRAT-NH2) [ZF5.3R],–,–,–,–,–,–,unaffected,can be recovered from cytosolic extracts; also recorded: a single peak with the same retention time as the starting material,effect of wortmannin on TR ([2]; wortmannin treatment): unaffected; degradation by cathepsin B (HPLC) (cathepsin B): little or no degradation

# — patent publication US11155580B2, “Modified proteins and methods of use thereof” (YALE UNIVERSITY, priority 2013, dated 2021)
